Here are results for 4 molecules from paper PMC12670405, “Second-Generation AURKA-Targeting PROTACs: Structural Optimization toward in Vivo Degradation in Neuroblastoma” (Journal of Medicinal Chemistry, 2025).

For orientation: hepatocyte CLint means a measure of how fast metabolising enzymes remove a compound, apart from limits set by blood flow. Low readings indicate greater metabolic stability, high ones faster metabolism. In general, Dmax refers to the greatest extent of degradation seen. The low end stands for a partial loss of target, the high end for a fuller loss of target. The DC50 is the concentration at which degradation of the target reaches its halfway point. One may read the microsomal CLint as the rate of metabolic loss divided by the concentration. A high value points to rapid turnover. As a reminder, the Ki is a dissociation constant, usually derived from enzyme kinetics or from competition with a known ligand. A high value points to weaker binding.

Like-named read-outs stand apart in the source and are kept apart here.

Data set [1] is described as follows: Metabolic stability in mouse hepatocytes (MH). The data set is classed as in vitro ADME, CD-1 mouse. The note with it: CD-1. As to the method: (§1) Plasma and metabolic stability tests were performed by Eurofins Discovery. For the plasma stability assay, test compounds were incubated in CD-1 mouse plasma for 0, 0.5, 1, 1.5, and 2 h at 37 °C at a concentration of 1 μM. For the metabolic stability assay, test compounds were incubated at 37 °C in either (1) CD-1 mouse liver microsomes (MLM) (0.1 mg/mL) at a concentration of 0.1 μM for 0, 15, 30, 45, and 60 min or (2) CD-1 mouse hepatocytes (MH) (0.7 million viable cells/mL) at a concentration of 1 μM for 0, 0.5, 1, 1.5, and 2 h. At the respective time points, acetonitrile was added to the incubation mixture followed by centrifugation. Samples were analyzed by HPLC-MS/MS and peak areas were recorded for each analyte. Compound stability, expressed as the percentage of parent compound remaining, was calculated by comparing the peak area of the compound at each time point relative to that of the 0h time point. Percentage compound remaining is plotted as a function of time as a logarithmic curve. Half-life (t 1/2) is estimated from the slope of the initial linear range of the curve, assuming first-order kinetics. […] Both plasma and metabolic assay experiments were performed once with 2 replicate samples each.

The next data set in a line: Plasma stability assay. The data set is classed as in vitro ADME, CD-1 mouse. The note with it: for half-life at 1 μM: CD-1 mouse plasma, 37 °C, read-out: plasma t1/2. As to the method: as §1
The target in data set [2] is T1, AURKA (Homo sapiens, UniProt O14965).
T1 sequence (O14965 1-403): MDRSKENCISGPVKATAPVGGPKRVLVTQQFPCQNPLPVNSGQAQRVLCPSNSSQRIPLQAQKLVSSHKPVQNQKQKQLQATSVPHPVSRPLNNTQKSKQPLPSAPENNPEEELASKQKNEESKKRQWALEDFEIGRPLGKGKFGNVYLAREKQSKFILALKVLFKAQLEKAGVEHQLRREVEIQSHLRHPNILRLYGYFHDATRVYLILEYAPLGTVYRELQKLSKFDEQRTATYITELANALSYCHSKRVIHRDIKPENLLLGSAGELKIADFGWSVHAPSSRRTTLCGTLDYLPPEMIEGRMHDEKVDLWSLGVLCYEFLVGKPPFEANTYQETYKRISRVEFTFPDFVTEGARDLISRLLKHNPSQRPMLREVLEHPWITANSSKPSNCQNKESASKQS
As to the kind of experiment: AURKA degradation, Simple Western.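 For AURKA Degradation 24h @1000nM: measured in NGP neuroblastoma cells.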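 For AURKA Degradation 24h @100nM: measured in NGP neuroblastoma cells.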 Format: cell-based. On the set-up: Representative Western blot showing levels of endogenous proteins MDR1, MYCN, AURKA, and CRBN in untreated cell lines; endogenous in cells; host or cells: NGP, IMR-32, SJNB-8, SK-N-BE(2)-C, SK-N-SH, SK-N-AS, SJNB-1, RPE, HEK293T. The conditions noted are these: for pDC50: AURKA degradation; for DC50: read-out: AURKA DC50; for AURKA degradation (in words): IMR-32, 24h treatment. The essentials: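 Cells treated with compound in medium; lysed in RIPA and analysed by Simple Western (0.8 μg/μL lysate, 0.2 μg/μL for MYCN). Peak areas were normalized to vinculin, giving fold change versus DMSO (mean of 3 experiments); DC50 interpolated from four-parameter dose–response curves.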

In a further data set the test system is NGP. As to the kind of experiment: IncuCyte live-cell imaging, antiproliferative effect. The conditions noted are these: Homo sapiens, 72 h. Format: cell-based. Put shortly: (§2)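 Cells seeded in 384-well plates (neuroblastoma 1200–5000, HEK293T 600 cells/well), adhered overnight, then compound-treated in duplicate or triplicate; confluency tracked by IncuCyte live-cell imaging. Normalized confluence averaged from 3 experiments; absolute GI50 interpolated from four-parameter variable-slope curves.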

Data set [3] is described as follows: Metabolic stability in mouse liver microsomes (MLM). The data set is classed as in vitro ADME, CD-1 mouse. The note with it: CD-1. The method, then:
as §1
A general note: Liver microsomes are vesicles of endoplasmic reticulum, rich in cytochrome P450 enzymes.

Another data set concerns the target T2, CRBN (Homo sapiens, UniProt Q96SW2).
T2 construct: purchased Eurofins Discovery
The data set can be described thus: CRBN binding assay (E3scan, Eurofins Discovery). The method, then:
(§3) AURKA, AURKB and CRBN binding assays were performed by Eurofins Discovery using the KdELECT Kinase Assay Panel (AURKA and AURKB), or the E3scan Ligand Binding Assay Technology (CRBN). More information can be found on the Eurofins Discovery Web site.
(§4) Graphs were generated using GraphPad Prism Software (version 10.1.2) or RStudio (R-4.3.2). All dose–response curves were computed on GraphPad Prism using the Variable Slope (four parameters) equation. Absolute half-maximal degradation (DC50), growth inhibitory (GI50) and enzymatic inhibitory (IC50) concentrations, as well as inhibition constants (Ki) were derived from dose–response curves via interpolation. Statistical tests were performed on GraphPad Prism and detailed in the figure legends. Unless otherwise stated, “n” in the figure legends indicates the number of independent experiments conducted at different times.

For the next data set, the system named is MYCN. The data set can be described thus: MYCN protein levels, Simple Western. The data set is classed as cell-based, human. The conditions noted are these: IMR-32. As to the method: Cells were seeded in T-25 flasks at different densities ranging from 1 to 2 million cells per flask and allowed to adhere for 1–2 days. In experiments involving compound treatment, this was done by medium replacement containing the compound(s) of interest in their corresponding concentrations. In competition binding experiments, cells were first pretreated with an excess of MK-5108, thalidomide or MG-132 for 1 h by shaking gently at room temperature prior to addition of SK4454 or SK5527. All samples were normalized to contain the same percentage of DMSO as the negative DMSO controls. Cells were harvested on ice at their respective time points by scraping, washed with ice-cold PBS to collect remaining cells, and centrifuged (2500 rpm, 4 °C). A second washing and centrifugation step was performed prior to collection of the final cell pellets which were then snap-frozen in liquid nitrogen and kept frozen at −80 °C until further processing. Lysis of cell pellets occurred in cold RIPA buffer (0.5% w/v Sodium Deoxycholate, 150 mM NaCl, 50 mM TrisHCl pH 7.5, 0.1% w/v SDS, 1% w/v NP-40) supplemented with protease and phosphatase inhibitors (Roche, #11836145001, #04906845001) by rotating gently at 4 °C for 1h, followed by a centrifugation step for 10 min (10,000 rpm, 4 °C). The supernatant was collected and concentrations of the obtained protein lysates were measured using the Pierce BCA Protein Assay Kit (Thermo Fisher Scientific, #23227).
Simple Western analyses were performed with the Wes instrument (Bio-Techne) using the 12–230 kDa Wes Separation module and the EZ standard pack reagent 1 (Biotechne, #SM-W001, #PS-ST01EZ-8) following the manufacturer’s protocol. Protein lysates were loaded at 0.8 μg/μL under denaturing conditions (0.2 μg/μL for MYCN detection). Chemiluminescence peaks were generated by the Compass Software (Bio-Techne) and the area under the peaks calculated using the Gaussian fit method. Per lane, quantified data were always normalized to that of the loading control (Vinculin) prior to calculating fold changes relative to the negative DMSO control. Mean fold changes are calculated from 3 individual experiments. A list of the primary and secondary antibodies used can be found in the Supporting Information (Supplementary Table S7).
as §4

The target in data set [4] is T1, AURKA. The data set can be described thus: AURKA binding assay (KINOMEscan / KdELECT, Eurofins Discovery). On the set-up: purchased Eurofins Discovery. The method, then:
as §3, §4

A further data set concerns IMR-32. The data set can be described thus: IncuCyte live-cell imaging, antiproliferative effect. Format: cell-based. The conditions noted are these: Homo sapiens, IMR-32, 72 h; read-out: GI50. The essentials: as §2

T2 sequence (Q96SW2 whole entry): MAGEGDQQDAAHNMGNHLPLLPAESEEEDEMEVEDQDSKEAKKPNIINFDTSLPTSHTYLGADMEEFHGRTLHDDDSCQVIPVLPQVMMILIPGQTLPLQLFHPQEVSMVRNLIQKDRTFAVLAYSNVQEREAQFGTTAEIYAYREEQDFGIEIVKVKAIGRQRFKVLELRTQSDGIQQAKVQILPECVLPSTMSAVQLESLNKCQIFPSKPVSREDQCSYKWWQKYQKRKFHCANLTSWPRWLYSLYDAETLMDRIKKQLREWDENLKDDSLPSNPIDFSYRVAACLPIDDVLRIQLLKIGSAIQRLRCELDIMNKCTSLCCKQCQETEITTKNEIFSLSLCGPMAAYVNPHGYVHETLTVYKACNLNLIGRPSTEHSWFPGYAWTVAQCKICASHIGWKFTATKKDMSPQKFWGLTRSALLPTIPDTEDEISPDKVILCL

The molecule `O=C1CCC(Nc2ccc(N3CCN(C4CN(C(=O)[C@]5(Cc6cccc(Nc7nccs7)n6)CC[C@@H](Oc6cccc(Cl)c6F)CC5)C4)CC3)nc2)C(=O)N1` (stereo partly shown) [PROTAC 20] registered a hepatocyte CLint at 1 μM in data set [1] of under 4.1 µL/min/1e6 cells. Besides, in “Plasma stability assay”, the half-life at 1 μM was over 2 h and the “plasma t1/2” value was over 2 h. In addition, at AURKA [2], the “AURKA Degradation 24h @100nM” value was found to be 90, the “AURKA Degradation 24h @1000nM” value is recorded as 90, the pDC50 is 8,76 and the DC50 turned out to be 1.7 nM. For the same molecule, at AURKA [2] (NGP, 24 h treatment), the Dmax was 94% and the DC50 was 2 nM. In addition, in the data set on NGP (read-out: GI50 72h, 72h), the GI50 is 19 nM. In addition, in the data set on NGP (read-out: pGI50 (converted)), the GI50 is 19.1 nM. Further, in [3], the microsomal CLint at 0.1 μM worked out at 738 µL/min/mg. The molecule also came in with a Ki on CRBN of 3180 nM.
As for `O=C1CCN(Cc2ccc(C3CCN(CC4CCN(C(=O)[C@]5(Cc6cccc(Nc7nccs7)n6)CC[C@@H](Oc6cccc(Cl)c6F)CC5)CC4)CC3)nc2)C(=O)N1` [PROTAC 21], the hepatocyte CLint at 1 μM in data set [1] was under 4.1 µL/min/1e6 cells. Further, in “Plasma stability assay”, the half-life at 1 μM was over 2 h and the “plasma t1/2” value was over 2 h. Moreover, on AURKA [2], the “AURKA Degradation 24h @100nM” value worked out at 78, the “AURKA Degradation 24h @1000nM” value stood at 82, the pDC50 is reported as 7,97 and the DC50 was 10.8 nM. In addition, at AURKA [2] (NGP, 24 h treatment), the “AURKA degradation activity (in words)” value is given as “slightly reduced degradation potency compared to SK2188” and the Dmax is 85%. Also, in the data set on NGP (read-out: GI50 72h, 72h), the GI50 stood at 46 nM. Further, the GI50 in the data set on NGP (read-out: pGI50 (converted)) is 45.7 nM. Besides, in data set [3], the microsomal CLint at 0.1 μM stood at 186 µL/min/mg. The Ki on CRBN was 455 nM.
As for `Cc1cc(N(C)c2ccc(F)c(CC3(C(=O)N4CCC(F)(CN5CCN(c6ccc(N7CCC(=O)NC7=O)cn6)CC5)CC4)CCN(Cc4cccc(Cl)c4F)CC3)n2)n[nH]1` [SK5527-AURi], in the data set with MYCN, the “MYCN destabilization (in words)” value is given as “failed to destabilize MYCN”. In addition, the “AURKA degradation (in words)” value on AURKA [2] is reported as “failed to degrade AURKA”. In addition, the “AURKA binding (in words)” value at AURKA [4] was “inability to bind”. Also, the GI50 in the data set with IMR-32 is about 9000 nM.
On to `Cc1cc(Nc2ccc(F)c(CC3(C(=O)N4CCC(F)(CN5CCN(c6ccc(N7CCC(=O)N(C)C7=O)cn6)CC5)CC4)CCN(Cc4cccc(Cl)c4F)CC3)n2)n[nH]1` [SK5527-CRBi], for which the “MYCN destabilization (in words)” value in the data set with MYCN is given as “failed to destabilize MYCN”. Besides, the “AURKA degradation (in words)” value on AURKA [2] was “failed to degrade AURKA”. The GI50 in the data set with IMR-32 is about 500 nM. Besides, the “CRBN binding (in words)” value on CRBN is on record as “inability to bind”.
